Experimental data as given in patent US20100222365A1, “SUBSTITUTED TRIAZOLE DERIVIATIVES AS OXYTOCIN ANTAGONISTS” (Pfizer Inc, priority 2005, published 2010).

Molecular target: T1, Oxytocin receptor (CHO-OTR/NFAT-β-Lactamase cells) (Homo sapiens, UniProt P30559)
T1 construct: expressed in transfected cells; host or cells: CHO-OTR cell line, further transfected with the NFAT-β-lactamase reporter construct
T1 sequence (P30559 1-389): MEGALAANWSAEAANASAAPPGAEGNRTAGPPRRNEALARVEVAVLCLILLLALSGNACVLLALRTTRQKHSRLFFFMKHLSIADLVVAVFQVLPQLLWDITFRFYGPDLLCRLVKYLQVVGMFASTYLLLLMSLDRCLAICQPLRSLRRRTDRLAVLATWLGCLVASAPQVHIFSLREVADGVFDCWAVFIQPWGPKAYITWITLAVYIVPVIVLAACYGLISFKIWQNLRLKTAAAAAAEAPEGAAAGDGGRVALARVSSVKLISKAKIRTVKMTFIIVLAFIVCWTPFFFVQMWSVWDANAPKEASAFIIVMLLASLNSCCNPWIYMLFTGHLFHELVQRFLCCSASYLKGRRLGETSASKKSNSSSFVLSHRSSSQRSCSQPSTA
Test: Oxytocin Receptor Beta-lactamase Assay
Format: cell-based
Details: oxytocin stimulation 4 hours, read-out: Oxytocin antagonist activity, expressed as a Ki value
Protocol: A suitable assay for determining the Oxytocin antagonist activity of a compound is detailed herein below.
Oxytocin Receptor Beta-lactamase Assay:
Cell Culture: Cells used are CHO-OTR/NFAT-β-Lactamase. The NFAT-β-lactamase expression construct was transfected into the CHO-OTR cell line and clonal populations were isolated via fluorescence activated cell sorting (FAGS). An appropriate clone was selected to develop the assay.
Culturing cells—CHO-OTR-NFAT-βLactamase cells were grown in growth medium. Cells were harvested when they reached 80-90% confluence removing the medium and washing with pre-warmed PBS. […]
Cells grown at 80-90% confluence were harvested and counted. […]
Preparation of 1 ml of 6× Loading Buffer with Enhanced Loading Protocol (this requires scale-up according to number of plates to be screened) • 12 μl of solution A (1 mM CCF4-AM in Dry DMSO) was added to […] of solution B (100 mg/ml Pluronic-F127 in DMSO+0.1% Acetic Acid) and vortexed. • The resulting solution was added to 925 μl of solution C (24% w/w PEG400, 18% TR40 v/v in water). • 75 μl of solution D was added (200 mM probenecid in 200 mM NaOH). • 10 μl of 6× Loading Buffer was added to all wells and incubated for 1.5 hrs-2 hrs at room temperature in the dark. • The plates were read using an UL Analyst, Excitation 405 nm, Emission 450 nm and 530 nm, gain optimal, lagtime 0.40 μs integration, 4 flashes, bottom reading.

Ki: 5.5 nM
SMILES: COc1ccc(-n2c(C)nnc2-c2cnc(Oc3cccc(C)c3C)cn2)cn1 [Example 6]
